The results in this text go back to patent US9481688B2, “(Thieno[2,3-b][1,5]benzoxazepin-4-yl)piperazin-1-yl compounds as dual activity H1 inverse agonists/5-HT2A antagonists” (Eli Lilly and Company, priority 2011, dated 2016).

For this assay, the target named is 5-HT7 (Homo sapiens (Human), UniProt P34969). The experiment in a line: 5-HT7 binding. An excerpt: Further, the compounds of the invention may be tested in binding assays and functional activity assays by well known methods for other physiologically important receptors such as, but not limited to, the hERG channel, other serotonin receptors (specifically 5-HT1B, 5-HT1D, receptors, lack of agonist activity at 5-HT2B receptors, 5-HT2C, 5-HT5, 5-HT6, and 5-HT7 receptors), dopaminergic receptors (specifically D1, D2, and D3), GABAA receptors, adrenergic receptors and monoamine transporters.

Counter-ions that a name gives are not always drawn.

Chain of 5-HT7 (P34969 whole entry, species assumed): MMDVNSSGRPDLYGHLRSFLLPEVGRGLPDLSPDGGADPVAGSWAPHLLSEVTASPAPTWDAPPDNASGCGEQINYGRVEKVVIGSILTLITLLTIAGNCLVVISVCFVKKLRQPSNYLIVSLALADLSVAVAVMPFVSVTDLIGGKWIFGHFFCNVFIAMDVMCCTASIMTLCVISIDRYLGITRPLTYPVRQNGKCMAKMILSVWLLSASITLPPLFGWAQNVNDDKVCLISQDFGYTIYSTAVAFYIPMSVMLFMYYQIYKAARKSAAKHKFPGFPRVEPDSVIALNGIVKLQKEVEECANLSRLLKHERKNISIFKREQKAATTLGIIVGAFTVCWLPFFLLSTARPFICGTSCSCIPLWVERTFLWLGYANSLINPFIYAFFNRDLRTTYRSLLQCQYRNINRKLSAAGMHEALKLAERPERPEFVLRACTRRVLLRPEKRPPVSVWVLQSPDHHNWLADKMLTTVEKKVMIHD

`Cc1ccc2c(c1)Oc1sc(Cl)cc1C(N1CCN(CC(C)(C)C(=O)O)CC1)=N2` [Example 3, 3-[4-(2-chloro-8-methyl-thieno[2,3-b][1,5]benzoxazepin-4-yl)piperazin-1-yl]-2,2-dimethyl-propanoic acid dihydrochloride] showed a Ki greater than 2.06 µM.
